Measurements published in paper PMC9118179, “Ginkgolic acid and anacardic acid are reversible inhibitors of SARS-CoV-2 3-chymotrypsin-like protease” (Cell & Bioscience, 2022).

Assays:
SARS-CoV-2 3CL^pro [1] = target: T1, SARS-CoV-2 3CL^pro (Severe acute respiratory syndrome coronavirus 2, UniProt P0DTD1); test: FRET protease assay; format: biochemical
T1 construct: gene rep

SARS-CoV-2 3CL^pro [2] = target: T1, SARS-CoV-2 3CL^pro; test: FRET protease assay, Lineweaver-Burk secondary plot; format: biochemical

CCCCCCCCCCCCCCCc1cccc(O)c1C(=O)O [AA, anacardic acid]
IC50 (SARS-CoV-2 3CL^pro [1]): 7.6 ± 0.3 µM | Ki (SARS-CoV-2 3CL^pro [2]): 1870 nM
